Assay results from PubChem BioAssay AID1963828 (Molecular Pharmacology Branch, DTP, NCI, 2024).

Test system: 991263-137-R1-J2-PDC complex spheroid viability
Experiment: Anticancer human tumor 991263-137-R1-J2-PDC patient-derived colon adenocarcinoma cell line growth inhibition [POLQ]
Conditions: for IC50: curve of first compound; for viability, T/C: stronger effect = lower value
In short: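 Three-cell-type spheroids modelling solid tumor plus stroma served as the readout system; POL inhibitors were tested individually and in combination, concentration ranges set by clinical Cmax where known.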

[1] = second compound 0.0316 µM, first compound 0.0316 µM
[2] = second compound 0.0316 µM, first compound 0.1 µM
[3] = second compound 0.0316 µM, first compound 0.316 µM
[4] = second compound 0.0316 µM, first compound 1 µM
[5] = second compound 0.0316 µM, first compound 3.16 µM
[6] = second compound 0.0316 µM, first compound 10 µM
[7] = second compound 0.1 µM, first compound 0.0316 µM
[8] = second compound 0.1 µM, first compound 0.1 µM
[9] = second compound 0.1 µM, first compound 0.316 µM
[10] = second compound 0.1 µM, first compound 1 µM
[11] = second compound 0.1 µM, first compound 3.16 µM
[12] = second compound 0.1 µM, first compound 10 µM
[13] = second compound 0.316 µM, first compound 0.0316 µM
[14] = second compound 0.316 µM, first compound 0.1 µM
[15] = second compound 0.316 µM, first compound 0.316 µM
[16] = second compound 0.316 µM, first compound 1 µM
[17] = second compound 0.316 µM, first compound 3.16 µM
[18] = second compound 0.316 µM, first compound 10 µM
[19] = second compound 1 µM, first compound 0.0316 µM
[20] = second compound 1 µM, first compound 0.1 µM
[21] = second compound 1 µM, first compound 0.316 µM
[22] = second compound 1 µM, first compound 1 µM
[23] = second compound 1 µM, first compound 3.16 µM
[24] = second compound 1 µM, first compound 10 µM
[25] = second compound 3.16 µM, first compound 0.0316 µM
[26] = second compound 3.16 µM, first compound 0.1 µM
[27] = second compound 3.16 µM, first compound 0.316 µM
[28] = second compound 3.16 µM, first compound 1 µM
[29] = second compound 3.16 µM, first compound 3.16 µM
[30] = second compound 3.16 µM, first compound 10 µM
[31] = second compound 10 µM, first compound 0.0316 µM
[32] = second compound 10 µM, first compound 0.1 µM
[33] = second compound 10 µM, first compound 0.316 µM
[34] = second compound 10 µM, first compound 1 µM
[35] = second compound 10 µM, first compound 3.16 µM
[36] = second compound 10 µM, first compound 10 µM
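Also: spheroids exposed to compounds for 7 days before readout.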
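For viability, T/C in this document: 100% = DMSO vehicle control viability.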

## CC1COCCN1c1cc(C2(O)CC3CCC(C2)O3)c2cnn(-c3ccn[nH]3)c2n1 (stereo not drawn) + COC1C(OC(N)=O)C(O)C(Oc2ccc3c(O)c(NC(=O)c4ccc(O)c(CC=C(C)C)c4)c(=O)oc3c2C)OC1(C)C
Second compound 0.0316 µM
  IC50: 1460 nM
Second compound 0.1 µM
  IC50: 1930 nM
Second compound 0.316 µM
  IC50: 947 nM
Second compound 1 µM
  IC50: 1580 nM
Second compound 3.16 µM
  IC50: 1870 nM
Second compound 10 µM
  IC50: 1450 nM
[1]
  viability, T/C: 85.5%
[2]
  viability, T/C: 95.5%
[3]
  viability, T/C: 81.5%
[4]
  viability, T/C: 58.6%
[5]
  viability, T/C: 33.2%
[6]
  viability, T/C: 29.4%
[7]
  viability, T/C: 102%
[8]
  viability, T/C: 95.3%
[9]
  viability, T/C: 80.4%
[10]
  viability, T/C: 64.8%
[11]
  viability, T/C: 39%
[12]
  viability, T/C: 25%
[13]
  viability, T/C: 106%
[14]
  viability, T/C: 100%
[15]
  viability, T/C: 78.9%
[16]
  viability, T/C: 50.5%
[17]
  viability, T/C: 26.5%
[18]
  viability, T/C: 26.1%
[19]
  viability, T/C: 104%
[20]
  viability, T/C: 106%
[21]
  viability, T/C: 85.7%
[22]
  viability, T/C: 59.8%
[23]
  viability, T/C: 36.2%
[24]
  viability, T/C: 23.7%
[25]
  viability, T/C: 89.8%
[26]
  viability, T/C: 76.4%
[27]
  viability, T/C: 73.9%
[28]
  viability, T/C: 56.1%
[29]
  viability, T/C: 46%
[30]
  viability, T/C: 21.6%
[31]
  viability, T/C: 84.7%
[32]
  viability, T/C: 95.8%
[33]
  viability, T/C: 74.3%
[34]
  viability, T/C: 56.4%
[35]
  viability, T/C: 36.7%
[36]
  viability, T/C: 21.2%

## COc1cc(C2c3cc4c(cc3C(OC3OC5COC(C)OC5C(O)C3O)C3COC(=O)C23)OCO4)cc(OC)c1O (stereo not drawn) + Cc1cccc(N(C)C(=O)C2C(O)CCN2c2nc(C)cc(C(F)(F)F)c2C#N)c1
Second compound 0.0316 µM
  IC50: > 10000 nM
Second compound 0.1 µM
  IC50: > 10000 nM
Second compound 0.316 µM
  IC50: > 10000 nM
Second compound 1 µM
  IC50: > 10000 nM
Second compound 3.16 µM
  IC50: > 10000 nM
Second compound 10 µM
  IC50: > 10000 nM
[1]
  viability, T/C: 115%
[2]
  viability, T/C: 99%
[3]
  viability, T/C: 87.1%
[4]
  viability, T/C: 90.5%
[5]
  viability, T/C: 102%
[6]
  viability, T/C: 84.7%
[7]
  viability, T/C: 95.2%
[8]
  viability, T/C: 103%
[9]
  viability, T/C: 75.8%
[10]
  viability, T/C: 98.1%
[11]
  viability, T/C: 86.3%
[12]
  viability, T/C: 73.1%
[13]
  viability, T/C: 104%
[14]
  viability, T/C: 102%
[15]
  viability, T/C: 109%
[16]
  viability, T/C: 95.8%
[17]
  viability, T/C: 94.4%
[18]
  viability, T/C: 87.2%
[19]
  viability, T/C: 104%
[20]
  viability, T/C: 109%
[21]
  viability, T/C: 105%
[22]
  viability, T/C: 106%
[23]
  viability, T/C: 84.8%
[24]
  viability, T/C: 85.7%
[25]
  viability, T/C: 97.2%
[26]
  viability, T/C: 107%
[27]
  viability, T/C: 92.3%
[28]
  viability, T/C: 99.2%
[29]
  viability, T/C: 102%
[30]
  viability, T/C: 76.8%
[31]
  viability, T/C: 117%
[32]
  viability, T/C: 96.3%
[33]
  viability, T/C: 73.6%
[34]
  viability, T/C: 89.1%
[35]
  viability, T/C: 84.9%
[36]
  viability, T/C: 71.1%

## COc1cccc2c1C(=O)c1c(O)c3c(c(O)c1C2=O)CC(O)(C(=O)CO)CC3OC1CC(N)C(O)C(C)O1 (stereo not drawn) + Cc1cccc(N(C)C(=O)C2C(O)CCN2c2nc(C)cc(C(F)(F)F)c2C#N)c1
Second compound 0.0316 µM
  IC50: 1410 nM
Second compound 0.1 µM
  IC50: 1850 nM
Second compound 0.316 µM
  IC50: 1740 nM
Second compound 1 µM
  IC50: 976 nM
Second compound 3.16 µM
  IC50: 1010 nM
Second compound 10 µM
  IC50: 790 nM
[1]
  viability, T/C: 90.1%
[2]
  viability, T/C: 99.4%
[3]
  viability, T/C: 79.1%
[4]
  viability, T/C: 55.9%
[5]
  viability, T/C: 38.5%
[6]
  viability, T/C: 35.3%
[7]
  viability, T/C: 105%
[8]
  viability, T/C: 91.9%
[9]
  viability, T/C: 92.2%
[10]
  viability, T/C: 56.7%
[11]
  viability, T/C: 46.2%
[12]
  viability, T/C: 33.8%
[13]
  viability, T/C: 114%
[14]
  viability, T/C: 99.4%
[15]
  viability, T/C: 94.8%
[16]
  viability, T/C: 57.2%
[17]
  viability, T/C: 41.7%
[18]
  viability, T/C: 34.1%
[19]
  viability, T/C: 92.8%
[20]
  viability, T/C: 95.4%
[21]
  viability, T/C: 102%
[22]
  viability, T/C: 48.9%
[23]
  viability, T/C: 44.3%
[24]
  viability, T/C: 27.6%
[25]
  viability, T/C: 99.6%
[26]
  viability, T/C: 107%
[27]
  viability, T/C: 74.2%
[28]
  viability, T/C: 51.8%
[29]
  viability, T/C: 36.4%
[30]
  viability, T/C: 26.9%
[31]
  viability, T/C: 97.1%
[32]
  viability, T/C: 78.3%
[33]
  viability, T/C: 68.9%
[34]
  viability, T/C: 40.8%
[35]
  viability, T/C: 33.7%
[36]
  viability, T/C: 15.7%

## O=c1[nH]cc(F)c(=O)[nH]1 + Cc1cccc(N(C)C(=O)C2C(O)CCN2c2nc(C)cc(C(F)(F)F)c2C#N)c1
Second compound 0.0316 µM
  IC50: > 10000 nM
Second compound 0.1 µM
  IC50: > 10000 nM
Second compound 0.316 µM
  IC50: > 10000 nM
Second compound 1 µM
  IC50: > 10000 nM
Second compound 3.16 µM
  IC50: > 10000 nM
Second compound 10 µM
  IC50: > 10000 nM
[1]
  viability, T/C: 102%
[2]
  viability, T/C: 116%
[3]
  viability, T/C: 94%
[4]
  viability, T/C: 75.6%
[5]
  viability, T/C: 74.8%
[6]
  viability, T/C: 84.3%
[7]
  viability, T/C: 107%
[8]
  viability, T/C: 90.7%
[9]
  viability, T/C: 79.6%
[10]
  viability, T/C: 93.4%
[11]
  viability, T/C: 85.8%
[12]
  viability, T/C: 82.3%
[13]
  viability, T/C: 124%
[14]
  viability, T/C: 101%
[15]
  viability, T/C: 93%
[16]
  viability, T/C: 83.3%
[17]
  viability, T/C: 77.2%
[18]
  viability, T/C: 80.9%
[19]
  viability, T/C: 110%
[20]
  viability, T/C: 108%
[21]
  viability, T/C: 97.3%
[22]
  viability, T/C: 90.8%
[23]
  viability, T/C: 85.4%
[24]
  viability, T/C: 76%
[25]
  viability, T/C: 108%
[26]
  viability, T/C: 94.8%
[27]
  viability, T/C: 102%
[28]
  viability, T/C: 90.2%
[29]
  viability, T/C: 82.5%
[30]
  viability, T/C: 62.2%
[31]
  viability, T/C: 115%
[32]
  viability, T/C: 95.4%
[33]
  viability, T/C: 94.1%
[34]
  viability, T/C: 70%
[35]
  viability, T/C: 85%
[36]
  viability, T/C: 69.6%
